Laboratory results published in US5258406A, “Sulfonimidamides” (priority 1992, dated 1993).
Where two headings read alike, the source gives them in different places.

How the values were obtained:
Format in all cases: in vivo
colon carcinoma26 = conditions: IP, DX 10
Experimental: (§1) The compounds were tested in C3H mice bearing a 6C3HED lymphosarcoma, also known as the Gardner lymphosarcoma (GLS), and in a variety of human tumor xenografts in CD1 nu/nu mice, including CX-1, LX-1, HXGC3, and VRC5. The 6C3HED lymphosarcoma was obtained from the Division of Cancer Treatment, National […] Institute, Tumor Bank, maintained at E. G. and G. Mason Research (Worcester, Mass.). The CX-1 human colon carcinoma and the LX-1 human lung carcinoma xenografts were obtained from the National Cancer Institute. The HXGC3 and VRC5 human colon xenografts were obtained from Dr. P. J. Houghton, St. Jude Children's Hospital in Memphis (see Br. J. Cancer, 37, 213 (1978)). First passage tumor was stored in liquid nitrogen using standard techniques. The transplanted tumor was reestablished from the Tumor Bank every six months or as needed. The tumor was maintained by serial passage twice weekly in C3H mice.
(§2) In the procedure the tumor was removed from passage animals and minced into 1- to 3-mm square fragments using sterile techniques. Tumor pieces were checked for sterility using both Antibiotic Medium 1 and Brain Heart Infusion (Difco, Detroit, Mich.). Recipient mice were shaved and tumor pieces were implanted subcutaneously in the auxiliary region by trocar. Drug therapy on the appropriate schedule was initiated on the day after tumor implant for 6C3HED and after a seven (7) day delay for xenografts (or other delay as noted in Table 2). The compound being tested was mixed with 2.5% Emulphor EL620 from GAF Corporation (1:40 dilution in saline). Food and water were provided ad libitium. The drug was administered orally in 0.5 ml of 2.5% Emulphor (unless otherwise indicated). The tumor was measured the day after treatment ended with two dimensional measurements (width and length) of the tumor taken using automated digital calipers interfaced to a microcomputer. Approximate weight for the tumor was calculated using the following formula [Worzalla, J. F., et al., Invest. New Drugs, 8, 241 (1990], (tumor weight in mg)=(width in mm)^2 ×(length in mm)/2.
(§3) At least one control group of an equal number of mice was treated with the same volume of 2.5% Emulphor only. The percent inhibition was determined by subtracting the ratio of the mean tumor size of the test group relative to the control group from one and multiplying the result times 100.
(§4) The results of several experiments in mice bearing a 6C3HED lymphosarcoma (or other tumor where indicated) when the indicated compounds were administered are provided in Table 2. In Table 2, column 1 gives the Example number of the compound used, column 2 lists the dose level in mg/kg, column 3 provides the percent inhibition of tumor growth, column 4 gives the number of mice which died relative to the total number of animals in the group, column 5 gives the method of administration of the compound, and column 6 gives the dosage schedule. The protocol used with other tumors was the same as with the 6C3HED lymphosarcoma.
(i) Tumor type colon carcinoma26

CA755 adenocarcinoma = conditions: IP, DX 10
Experimental: as §1, §2, §3, §4
(h) Tumor type CA755 adenocarcinoma

B16 = conditions: IP, DX 10
GC3 = conditions: IP, DX 10
VRC5 = system: VRC5
M5 Ovarian Carcinoma = conditions: IP, DX 10, from day 5 after implant
Experimental: as §1, §2, §3, §4
(n) Tumor type M5 Ovarian Carcinoma

C3H mammary adenocarcin = conditions: IP, DX 10
Experimental: as §1, §2, §3, §4
(g) Tumor type C3H mammary adenocarcin

[1] = IP, 7.5 mg/kg, DX 10, from day 7 after implant
[2] = IP, 15 mg/kg, DX 10, from day 7 after implant
[3] = IP, 30 mg/kg, DX 10, from day 7 after implant
[4] = IP, 60 mg/kg, DX 10, from day 7 after implant

For `Cc1ccc(S(=N)(=O)NC(=O)Nc2ccc(Cl)cc2)cc1C` (centres unmarked) [Example 36, N-[[(4-chlorophenyl)amino]carbonyl]-3,4-dimethylbenzenesulfonimidamide], the “% inhibition of tumor growth” value (colon carcinoma26; 3.75 mg/kg) was 5%, the “Tox/Tot (mice which died / total)” value (colon carcinoma26; 3.75 mg/kg) was 0/10 and the “% inhibition of tumor growth” value (colon carcinoma26; 7.5 mg/kg) was 14%. The “Tox/Tot (mice which died / total)” value (colon carcinoma26; 7.5 mg/kg) was 0/10, the “% inhibition of tumor growth” value (colon carcinoma26; 15 mg/kg) was 6% and the “Tox/Tot (mice which died / total)” value (colon carcinoma26; 15 mg/kg) was 0/10. The “% inhibition of tumor growth” value (colon carcinoma26; 30 mg/kg) was 26%, the “Tox/Tot (mice which died / total)” value (colon carcinoma26; 30 mg/kg) was 0/10 and the “% inhibition of tumor growth” value (CA755 adenocarcinoma; 3.75 mg/kg) was 26%. The “Tox/Tot (mice which died / total)” value (CA755 adenocarcinoma; 3.75 mg/kg) was 0/10, the “% inhibition of tumor growth” value (CA755 adenocarcinoma; 7.5 mg/kg) was 1% and the “Tox/Tot (mice which died / total)” value (CA755 adenocarcinoma; 7.5 mg/kg) was 0/10. The “% inhibition of tumor growth” value (CA755 adenocarcinoma; 15 mg/kg) was 42%, the “Tox/Tot (mice which died / total)” value (CA755 adenocarcinoma; 15 mg/kg) was 0/10 and the “% inhibition of tumor growth” value (CA755 adenocarcinoma; 30 mg/kg) was 72%. The “Tox/Tot (mice which died / total)” value (CA755 adenocarcinoma; 30 mg/kg) was 0/10, the “% inhibition of tumor growth” value (B16; 3.75 mg/kg) was 0% and the “Tox/Tot (mice which died / total)” value (B16; 3.75 mg/kg) was 0/10. The “% inhibition of tumor growth” value (B16; 7.5 mg/kg) was 0%, the “Tox/Tot (mice which died / total)” value (B16; 7.5 mg/kg) was 0/10 and the “% inhibition of tumor growth” value (B16; 15 mg/kg) was 0%. For the same compound, the “Tox/Tot (mice which died / total)” value (B16; 15 mg/kg) was 0/10, the “% inhibition of tumor growth” value (B16; 30 mg/kg) was 9% and the “Tox/Tot (mice which died / total)” value (B16; 30 mg/kg) was 0/10. The “% inhibition of tumor growth” value (GC3; 3.75 mg/kg) was 6%, the “Tox/Tot (mice which died / total)” value (GC3; 3.75 mg/kg) was 0/10 and the “% inhibition of tumor growth” value (GC3; 7.5 mg/kg) was 17%. The “Tox/Tot (mice which died / total)” value (GC3; 7.5 mg/kg) was 0/10, the “% inhibition of tumor growth” value (GC3; 15 mg/kg) was 13% and the “Tox/Tot (mice which died / total)” value (GC3; 15 mg/kg) was 1/10. For the same compound, the “% inhibition of tumor growth” value (GC3; 30 mg/kg) was 12%, the “Tox/Tot (mice which died / total)” value (GC3; 30 mg/kg) was 9/10 and the “% inhibition of tumor growth” value (VRC5; [1]) was 0%. The “Tox/Tot (mice which died / total)” value (VRC5; [1]) was 1/10, the “% inhibition of tumor growth” value (VRC5; [2]) was 0% and the “Tox/Tot (mice which died / total)” value (VRC5; [2]) was 0/10. The “% inhibition of tumor growth” value (VRC5; [3]) was 44%, the “Tox/Tot (mice which died / total)” value (VRC5; [3]) was 4/10 and the “% inhibition of tumor growth” value (VRC5; [4]) was “TOX”. For the same compound, the “Tox/Tot (mice which died / total)” value (VRC5; [4]) was 10/10, the “% inhibition of tumor growth” value (VRC5; oral, 5 mg/kg, DX 10) was 0% and the “Tox/Tot (mice which died / total)” value (VRC5; oral, 5 mg/kg, DX 10) was 0/10. The “% inhibition of tumor growth” value (VRC5; oral, 10 mg/kg, DX 10) was 10%, the “Tox/Tot (mice which died / total)” value (VRC5; oral, 10 mg/kg, DX 10) was 0/10 and the “% inhibition of tumor growth” value (VRC5; oral, 20 mg/kg, DX 10) was 45%. The “Tox/Tot (mice which died / total)” value (VRC5; oral, 20 mg/kg, DX 10) was 2/9, the “% inhibition of tumor growth” value (M5 Ovarian Carcinoma; 3.75 mg/kg) was 10% and the “Tox/Tot (mice which died / total)” value (M5 Ovarian Carcinoma; 3.75 mg/kg) was 0/10. For the same compound, the “% inhibition of tumor growth” value (M5 Ovarian Carcinoma; 7.5 mg/kg) was 19%, the “Tox/Tot (mice which died / total)” value (M5 Ovarian Carcinoma; 7.5 mg/kg) was 0/10 and the “% inhibition of tumor growth” value (M5 Ovarian Carcinoma; 15 mg/kg) was 47%. For the same compound, the “Tox/Tot (mice which died / total)” value (M5 Ovarian Carcinoma; 15 mg/kg) was 0/10, the “% inhibition of tumor growth” value (M5 Ovarian Carcinoma; 30 mg/kg) was 38% and the “Tox/Tot (mice which died / total)” value (M5 Ovarian Carcinoma; 30 mg/kg) was 1/10. The “% inhibition of tumor growth” value (C3H mammary adenocarcin; 3.75 mg/kg) was 38%, the “Tox/Tot (mice which died / total)” value (C3H mammary adenocarcin; 3.75 mg/kg) was 1/10 and the “% inhibition of tumor growth” value (C3H mammary adenocarcin; 7.5 mg/kg) was 69%. For the same compound, the “Tox/Tot (mice which died / total)” value (C3H mammary adenocarcin; 7.5 mg/kg) was 0/10, the “% inhibition of tumor growth” value (C3H mammary adenocarcin; 15 mg/kg) was 74% and the “Tox/Tot (mice which died / total)” value (C3H mammary adenocarcin; 15 mg/kg) was 6/10. For the same compound, the “% inhibition of tumor growth” value (C3H mammary adenocarcin; 30 mg/kg) was “TOX” and the “Tox/Tot (mice which died / total)” value (C3H mammary adenocarcin; 30 mg/kg) was 10/10.
